≈ marks a conversion by molar mass, not a printed value. Where two headings read alike, the source gives them in different places.
Assays:
p-ERK1/2 in HT-29 cells = assay: Western blot of phosphorylated ERK1/2; assay type: cell-based, human; conditions: 24 h; 10 and 20 μg/mL
Method: (§1) Cells were cultured to 80% confluence at 37 °C. After 24 h of treatment with the compounds (10 and 20 µg/mL for compounds 1, 2, 5, 6, 7, and 8, and 30 and 60 µg/mL for compounds 3 and 4), HT-29 cells were rinsed twice with ice-cold PBS, and then lysed immediately in lysis buffer (250 mM NaCl, 50 mM Tris (pH 7.5), 0.5 mM EDTA, 5 mM EGTA, 8 mM MgCl2, 1 mM PMSF, 0.01 mg/mL pepstatin A, 0.01 mg/mL leupeptin, 0.01 mg/mL aprotinin, 1% Triton X-100). After centrifugation at 12,000 g for 3 min at 4°C to separate the cellular debris, the supernatant was collected and stored at −80°C until use. The protein concentrations were determined using Bio-Rad Protein Assay (BioRad, Richmond, CA, USA), according to the manufacturer’s instructions.
(§2) Equal protein content (50 μg) samples of cell lysates were separated on 10% SDS–polyacrylamide gel and transferred to polyvinylidene difluoride membranes (Hybond-P, Amershan Biosciences, Little Chalfont, UK). The membranes were blocked with 5% (w/v) non-fat dry milk in Tris-buffered saline containing 0.1% Tween-20 buffer (pH 7.4) (TBST) for 1 h at room temperature and incubated with agitation with specific antibodies: anti-pERK1/2 (Cell Signaling; 1:1000), anti-pJNK (Cell Signaling; 1:1000), anti-pAKT (Cell Signaling; 1:1000), anti-β-actin (Sigma-Aldrich; 1:500). Membranes were incubated overnight at 4°C with gentle shaking. The secondary antibody was a peroxidase-conjugated goat anti-mouse or -rabbit antibody (1:10,000; DakoCytomation, Carpinteria, CA, USA). After washing the membrane three times in TBST buffer (10 min), the signals were detected using an enhanced chemiluminescence light-detecting kit (Super-Signal West Pico Chemiluminescent Substrate, Pierce, IL, USA), according to the manufacturer’s instructions and exposed to an X-ray film (GE Healthcare Ltd., Amersham, UK). The protein band densities were analyzed and quantified with a Scientific Imaging Systems (Biophotonics ImageJ Analysis Software, National Institute of Mental Health, Bethesda, MD, USA). β-actin was used to confirm the equal loading and transfer of proteins.

p-AKT in HT-29 cells = assay: Western blot of phosphorylated AKT; assay type: cell-based, human; conditions: 24 h; 10 and 20 μg/mL for 1, 2, 5, 6, 7, 8; 30 and 60 μg/mL for 3 and 4
Method: as §1, §2

HT-29 colon cancer cells [1] = assay: Annexin V-FITC/PI flow cytometry apoptosis induction assay; assay type: cell-based, human; conditions: 24 h; for necrosis (dead cells): 30 μg/mL
Method: Quantitative assessment of apoptosis was performed by flow cytometry using an Annexin V-FITC Apoptosis Detection Kit. Briefly, 1 × 10^6 HT-29 cells were seeded per well in six-well plates and incubated for 24 h, followed by the addition of the AMTs dissolved in DMSO (final concentrations of 10, 20, and 30 µg/mL for compounds 1, 2, 5, 6, 7, and 8, and 30, 60, and 90 µg/mL for compounds 3 and 4, and less than 0.05% DMSO) and incubation for 24 h. Curcumin (final concentrations of 50 and 75 μM) was used as positive control. The cells were then washed, harvested with trypsin, and centrifuged at 1500 rpm (5 min, 25 °C). The pellet was resuspended in 195 µL of 1 × Annexin buffer and then stained with 5 μL of Annexin V-FITC and 10 μL of PI for 10 min at room temperature, in the dark. To this mixture 200 μL of 1 × Annexin buffer was added before analysis using a Cytomics FC500 flow cytometer (Beckman Coulter, Indianapolis, IN, USA). Following a gating strategy, flow cytometry plots of size (FS) and complexity (SS) of the HT-29 cells were previously established for the elaboration of a measurement protocol. The normal healthy cells, early apoptosis, late apoptosis, and necrotic populations were represented by annexin V-negative/PI-negative population, annexin V-positive/PI-negative, annexin V-positive/PI-positive and annexin-negative/PI-positive cells, respectively. A total of 10,000 cellular events in each sample were analyzed using DML program.

HT-29 colon cancer cells [2] = assay: Cell cycle analysis by flow cytometry (PI); assay type: cell-based, human; conditions: 24 h; 30 μg/mL of 1, 2, 5, 6, 7, 8 and 90 μg/mL of 3 and 4 (Figure 4B)
Method: HT-29 cells (1 × 10^6 cells/well) were seeded in six-well plates and incubated for 24 h, followed by treatment with AMTs dissolved in DMSO (final concentrations of 10, 20, and 30 µg/mL for compounds 1, 2, 5, 6, 7, and 8, and 30, 60, and 90 µg/mL for compounds 3 and 4, and always below 0.05% DMSO) and 24 h of additional incubation. Colchicine (final concentration of 0.2 μg/mL) was used as positive control. The cells were then washed, harvested with trypsin, and centrifuged at 1500 rpm (5 min, 25 °C). The resulting pellet was fixed with ice-cold 70% ethanol (1 mL/10^6 cells) and the samples were stored at −4°C overnight. After fixation, the cells were washed with PBS, stained with PBS containing 5 mg/mL of RNase A, and incubated for 48 h at 4 °C. Subsequently, 50 μL of 0.1 mg/mL of IP was added and incubated for 1 h at 4 °C. The relative DNA content per cell was analyzed using a Cytomics FC500 flow cytometer (Beckman Coulter, Indianapolis, IN, USA). The data acquisition was performed with the DML program and the analysis of the acquired data with the CXP Software (Beckman Coulter, Indianapolis, IN, USA).

[3] = tested on: HT-29 human colon carcinoma cells; assay: Sulforhodamine B (SRB) cell viability assay, HT-29; assay type: cell-based; conditions: for IC50: Homo sapiens, HT-29, 72 h; for Selectivity Index (SI): IC50 for normal cells CCD 841 CoN / IC50 for cancer cells HT-29
Method: (§3) Cell viability was quantified using the Sulforhodamine B assay described by Skehan et al.. Cells were plated with a density of 5 × 10^3 (HT-29) and 1 × 10^4 (CCD 841 CoN) cells/well and allowed to attach at 37 °C in an atmosphere with 5% CO2. After 24 h, the AMTs dissolved in DMSO were added to the cells (final concentrations of 10, 20, 30, and 50 µg/mL and less than 0.05% of DMSO) and the plates were incubated for 72 h. Then, the cells were fixed by adding 50 μL of TCA (50%) to each well and the plates were maintained for 1 h at 4 °C. The plates were washed five times with deionized water, air-dried, and stained for 30 min at room temperature with 100 μL of 0.4% (w/v) SRB prepared in 1% (v/v) acetic acid. The plates were rinsed quickly five times with 1% acetic acid to remove unbound dye, followed by air-drying. The bound dye was solubilized in 2 mM Tris base (100 μL/well) for 5 min. Optical densities were read on a microplate reader (Spectrophotometer LabsystemsMultiskan EX, λ 492 nm). Three independent assays were conducted, each one in duplicate. A standard curve was constructed for each experiment and used for converting the measured optical density values into numbers of viable cells/well. The inhibition rate was used to evaluate the cell viability and its algorithm was the following formula: ((ODcontrol − ODtreatment)/ODcontrol) × 100; OD, optical density. The OD492 for control cells was taken as 100% viability. The half maximal inhibitory concentration (IC50) was calculated. The selectivity index (SI) of each compound was calculated as IC50 of the compound against the CCD 841 CoN normal cell line/IC50 of the same compound against the HT-29 cancer cell line.

[4] = tested on: normal human colonic epithelial cells CCD 841 CoN; assay: Sulforhodamine B (SRB) cell viability assay, CCD 841 CoN; assay type: cell-based; conditions: normal colon cells, 72 h of treatment, mean ± SE of three experiments, read-out: IC50 CCD841 CoN
Method: as §3

HT-29 cells [5] = assay: Wound migration assay; assay type: cell-based, human; conditions: 24 h, wound-healing; for inhibition at 10 µg/mL: Homo sapiens, HT-29, 10 μg/mL, read-out: inhibition of cell migration
Method: For cell migration assay, HT-29 cells were seeded in six-well culture plates and allowed to grow to 80%–90% confluence for the experiment. After aspirating the medium, similar sized wounds were performed in the monolayer cells using a sterile micropipette tip. Wounded monolayer cells were washed three times with PBS to remove cell debris and then replaced with complete McCoy’s medium. HT-29 cells were treated with the AMTs (10 µg/mL for compounds 1, 2, 5, 6, 7, and 8, and 30 µg/mL for compounds 3 and 4) and incubated for 24h. For the image analysis of the effect of each treatment on cell migration, the wounded area was photographed immediately after scratching and after 24 h. The level of cell migration was determined using NIH Image software (Image J 1.44g, Wayne Rasband, USA) and then expressed as a percentage of wound closure area using the equation: Migration rate (%) = [(wound area at 0 h − wound area at 24 h)/wound area at 0 h] × 100%.

p-JNK in HT-29 cells = assay: Western blot of phosphorylated JNK; assay type: cell-based, human; conditions: 24 h; 10 and 20 μg/mL for 1, 2, 5, 6, 7, 8; 30 and 60 μg/mL for 3 and 4
Method: as §1, §2

HT-29 cells [6] = conditions: cited from earlier work
[7] = colon cancer cells, 72 h of treatment, SRB, mean ± SE of three experiments

| Compound | IC50 [3, 7] | IC50 HT-29 [3, 7] | p-ERK1/2 level vs control (p-ERK1/2 in HT-29 cells) | expression of p-AKT protein vs control (p-AKT in HT-29 cells) | necrosis (dead cells) (HT-29 colon cancer cells [1]) | accumulation of cells at the G2/M phase (cell cycle arrest, words) (HT-29 colon cancer cells [2]) | Selectivity Index (SI) [3] | IC50 [4] | inhibition at 10 µg/mL (HT-29 cells [5]) | induction of apoptosis or death of HT-29 cells (HT-29 colon cancer cells [1]; 4 tested at 30-90 μg/mL, 7 at 10-30 μg/mL) | inhibition of cell migration (HT-29 cells [5]; 30 μg/mL (methods, Figure 5B)) | phospho-JNK level vs control (p-JNK in HT-29 cells) | IC50 growth of HT-29 cells (HT-29 cells [6]) | IC50 (HT-29 cells [6]; read-out: IC50 growth of HT-29 cells) | IC50 growth of HT-29 cells (HT-29 cells [6]; value in brackets, converted from μM) |
| --- | --- | --- | --- | --- | --- | --- | --- | --- | --- | --- | --- | --- | --- | --- | --- |
| COc1c(C)cc(O)cc1C/C=C(\C)CC(=O)/C=C(\C)CCCC(C)C(=O)/C=C/C(C)(C)O (centres unmarked) [Compound 6, amentadione-1′-methyl ether] | 10.7 ± 0.27 µg/mL (≈ 23.5 µM) |  | significantly reduced | no significant reduction | 59.55% | not significant | 4.51 | 48.4 ± 3.84 µg/mL (≈ 106 µM) | 45.3% |  |  |  |  |  |  |
| sargachromanol R |  |  |  |  |  |  |  |  |  |  |  |  | 3.4 µg/mL |  |  |
| zonaquinone acetate |  |  |  |  |  |  |  |  |  |  |  |  |  | 17.3 µM | 7.8 µg/mL |

Now from value to compound, other results behind:

| IC50 [3, 7] | IC50 HT-29 [3, 7] | Compound | p-ERK1/2 level vs control (p-ERK1/2 in HT-29 cells) | expression of p-AKT protein vs control (p-AKT in HT-29 cells) | necrosis (dead cells) (HT-29 colon cancer cells [1]) | accumulation of cells at the G2/M phase (cell cycle arrest, words) (HT-29 colon cancer cells [2]) | Selectivity Index (SI) [3] | IC50 [4] | inhibition at 10 µg/mL (HT-29 cells [5]) | induction of apoptosis or death of HT-29 cells (HT-29 colon cancer cells [1]; 4 tested at 30-90 μg/mL, 7 at 10-30 μg/mL) | inhibition of cell migration (HT-29 cells [5]; 30 μg/mL (methods, Figure 5B)) | phospho-JNK level vs control (p-JNK in HT-29 cells) | IC50 growth of HT-29 cells (HT-29 cells [6]) | IC50 (HT-29 cells [6]; read-out: IC50 growth of HT-29 cells) | IC50 growth of HT-29 cells (HT-29 cells [6]; value in brackets, converted from μM) |
| --- | --- | --- | --- | --- | --- | --- | --- | --- | --- | --- | --- | --- | --- | --- | --- |
| 34.3 µg/mL (≈ 95.7 µM) | 36.86 ± 2.86 µg/mL (≈ 103 µM) | COc1c(C)cc(O)cc1C/C=C(\C)CC(=O)/C=C(/C)CCCC(C)=O [Compound 4, cystomexicone A] |  | significantly downregulated |  | significant | 1.68 | 61.9 ± 2.37 µg/mL (≈ 173 µM) |  | did not induce neither apoptosis nor death | no significant effects | decreased phosphorylation |  |  |  |
| 7.83 ± 0.05 µg/mL (≈ 17.1 µM) |  | COc1c(C)cc(O)cc1C/C=C(\C)CC(=O)/C=C(/C)CCCC(C)C(=O)/C=C/C(C)(C)O (stereo not drawn) [Compound 5, 6-cis-amentadione-1′-methyl ether] | significantly reduced | no significant reduction | 72.75% | significant | 5.23 | 41 ± 9.8 µg/mL (≈ 89.7 µM) | 36.2% |  |  | decreased phosphorylation |  |  |  |
